The source of these data is ChEMBL document CHEMBL1126639, “Centrally acting serotonergic and dopaminergic agents. 2. Synthesis and structure-activity relationships of 2,3,3a,4,9,9a-hexahydro-1H-benz[f]indole derivatives” (J Med Chem, 1993).

For test [1], the system named is Felis catus. In words: Maximum decrease of arterial blood pressure at sympathetic nerve activity (SND) in anesthetized cat has been observed following 1 mg/kg dose. The test is classed as functional. Set-up: scale not given: the % may be the effect or the level left.
The target of test [2] is D(2) dopamine receptor (Homo sapiens, UniProt P14416). As to the kind of experiment: Binding affinity against [3H]U-86,170-labeled dopamine receptor D2 in cloned CHO cells. The test is classed as cell-based.
Test [3] relates to Mus musculus. As to the kind of experiment: Effective dose on hypothermia in mouse when administered through peroral route. To be noted: Mus musculus, po; read-out: ED50. It is filed as functional.
The test system of test [4] is Mus musculus. As to the kind of experiment: Effective dose on hypothermia in mouse when administered subcutaneously (95% confidence levels). The test is classed as functional. The note with it: sc.
The species entered for test [5] is Felis catus. In words: Percent of arterial blood pressure at sympathetic nerve activity (SND) dose value was determined. The test is classed as functional.
Test [6] concerns Mus musculus. In words: Maximum decrease in temperature when compound is administered subcutaneously. The test is classed as functional.
The subject of test [7] is Rattus norvegicus. As to the kind of experiment: Effect on the synthesis rates of serotonin (5-HTP accumulation) in the rat ventral limbic brain region 3.4 umol/kg. The test is classed as functional, Limbic system.
In test [8] the test system is Felis catus. In words: Effective dose at which the sympathetic nerve activity (SND) has been reduced to 50% of the pretreatment value in anesthetized cat. The test is classed as functional.
Test [9] has as its target T1, D(2) dopamine receptor (Rattus norvegicus, UniProt P61169). As to the kind of experiment: Inhibitory concentration against [3H]raclopride-labeled dopamine receptor D2 in rat striatum. It is filed as tissue-based.
Test [10] has as its system Rattus norvegicus. In words: Effect on the synthesis rates of dopamine (DOPA accumulation) in the rat ventral limbic brain region at 3.4 uM/kg. It is filed as functional, Limbic system.
Test [11] deals with Felis catus. As to the kind of experiment: Maximum decrease of sympathetic nerve activity (SND) in anesthetized cat. It is filed as functional. Set-up: scale not given: the % may be the effect or the level left.
In test [12] the test system is Mus musculus. In words: Maximum decrease in temperature when compound is administered through peroral route. It is filed as functional.
Test [13] deals with Mus musculus. As to the kind of experiment: Antagonism of apomorphine for 10-20 minutes in reserpinized mice when a dose of 3.7 micro mol/kg is administered intraperitoneally. The test is classed as functional.
The subject of test [14] is Mus musculus. In words: Antagonism of apomorphine for 10-20 minutes in reserpinized mice when a dose of 37 micro mol/kg is administered intraperitoneally. It is filed as functional.
Test [15] relates to Mus musculus. In words: Ability to stimulate dopaminergic systems by effect on locomotor activity in reserpinized mice when a dose of 0.4 micro mol/kg is administered intraperitoneally. The test is classed as functional.
For test [16], the species on record is Rattus norvegicus. In words: Effect on the synthesis rates of serotonin (5-HTP accumulation) in the rat ventral limbic brain region […]. The test is classed as functional, Limbic system.
For test [17], the system named is Mus musculus. As to the kind of experiment: Antagonism of apomorphine in reserpinized mice when a dose of 0.4 micro mol/kg is administered intraperitoneally. The test is classed as functional.
Test [18] deals with Mus musculus. In words: Antagonism of apomorphine in reserpinized mice when a dose of 3.7 micro mol/kg is administered intraperitoneally. The test is classed as functional.
The subject of test [19] is Mus musculus. In words: Antagonism of apomorphine in reserpinized mice when a dose of 37 micro mol/kg is administered intraperitoneally. It is filed as functional.
The subject of test [20] is Mus musculus. In words: Antagonism of apomorphine for 0-10 minutes in reserpinized mice when a dose of 37 micro mol/kg is administered intraperitoneally. The test is classed as functional.
Test [21] concerns Mus musculus. As to the kind of experiment: Effective dose on hypothermia in mouse when administered subcutaneously. The test is classed as functional. The note with it: Mus musculus, sc; read-out: ED50.
Test [22] relates to Mus musculus. As to the kind of experiment: Ability to stimulate dopaminergic systems by effect on locomotor activity in reserpinized mice when a dose of 3.7 micro mol/kg is administered intraperitoneally. It is filed as functional.
Test [23] concerns Mus musculus. As to the kind of experiment: Ability to stimulate dopaminergic systems by effect on locomotor activity in reserpinized mice when a dose of 37 micro mol/kg is administered intraperitoneally. The test is classed as functional.
Test [24] has as its system Rattus norvegicus. As to the kind of experiment: Inhibition of firing rates of dopaminergic neurons in the substantia nigra pars compacta by intravenous injection in rats. The test is classed as functional.
Test [25] concerns Rattus norvegicus. As to the kind of experiment: Effect on the synthesis rates of dopamine (DOPA accumulation) in the rat ventral limbic brain region at 3.7 uM/kg. The test is classed as functional, Limbic system.
In test [26] the test system is Mus musculus. As to the kind of experiment: Antagonism of apomorphine for 0-10 minutes in reserpinized mice when a dose of 3.7 micro mol/kg is administered intraperitoneally. The test is classed as functional.
In test [27] the test system is Mus musculus. In words: Antagonism of apomorphine for 0-10 minutes in reserpinized mice when a dose of 0.4 micro mol/kg is administered intraperitoneally. It is filed as functional.
The target in test [28] is T1, D(2) dopamine receptor. As to the kind of experiment: Binding affinity for [3H]raclopride-labeled dopamine receptor D2 in rat striatum. It is filed as tissue-based.
Test [29] deals with Mus musculus. In words: Time of effect in the isolation-induced aggression behavioral assay in the mouse when a dose of 0.0 micro mol/kg is administered intraperitoneally. The test is classed as functional.
Test [30] has as its system Mus musculus. In words: Ability to stimulate dopaminergic systems by effect on locomotor activity in reserpinized mice when a dose of 35 micro mol/kg is administered intraperitoneally (*,p<0.05). The test is classed as functional.
Test [31] deals with Mus musculus. In words: Antagonism of apomorphine in reserpinized mice when a dose of 35 micro mol/kg is administered intraperitoneally. It is filed as functional.
Test [32] concerns Mus musculus. As to the kind of experiment: Time of effect in the isolation-induced aggression behavioral assay in the mouse when a dose of 11 micro mol/kg is administered intraperitoneally (*,p<0.05). The test is classed as functional.
The test system of test [33] is Mus musculus. As to the kind of experiment: Time of effect in the isolation-induced aggression behavioral assay in the mouse when a dose of 3.5 micro mol/kg is administered intraperitoneally (*,p<0.05). It is filed as functional.
The subject of test [34] is Mus musculus. As to the kind of experiment: Time of effect in the isolation-induced aggression behavioral assay in the mouse when a dose of 0.4 micro mol/kg is administered intraperitoneally. The test is classed as functional.
The test system of test [35] is Mus musculus. In words: Time of effect in the isolation-induced aggression behavioral assay in the mouse when a dose of 36 micro mol/kg is administered intraperitoneally (*,p<0.05). The test is classed as functional.
Test [36] concerns Mus musculus. In words: Time of effect in the isolation-induced aggression behavioral assay in the mouse when a dose of 1.1 micro mol/kg is administered intraperitoneally. The test is classed as functional.
Test [37] deals with Mus musculus. In words: Ability to stimulate dopaminergic systems by effect on locomotor activity in reserpinized mice when a dose of 3.5 micro mol/kg is administered intraperitoneally (*,p<0.05). It is filed as functional.
For test [38], the system named is Mus musculus. As to the kind of experiment: Antagonism of apomorphine in reserpinized mice when a dose of 3.5 micro mol/kg is administered intraperitoneally. The test is classed as functional.
Test [39] concerns Rattus norvegicus. In words: Effect on the synthesis rates of serotonin (5-HTP accumulation) in the rat ventral limbic brain region 3.5 umol/kg. It is filed as functional, Limbic system.
Test [40] relates to Rattus norvegicus. As to the kind of experiment: Inhibition of firing rates of serotonergic neurons in the dorsal raphe nucleus by intravenous injection in rats. It is filed as functional. The note with it: Rattus norvegicus, Dorsal raphe nucleus, iv; read-out: ED50.
Test [41] has as its system Rattus norvegicus. As to the kind of experiment: Effect on the synthesis rates of dopamine (DOPA accumulation) in the rat ventral limbic brain region at 3.5 umol/kg. The test is classed as functional, Limbic system.
Test [42] relates to Rattus norvegicus. As to the kind of experiment: Inhibition of firing rates of dopaminergic neurons in the substantia nigra pars compacta by intravenous injection in rats. The test is classed as functional.

T1 sequence (P61169 whole entry): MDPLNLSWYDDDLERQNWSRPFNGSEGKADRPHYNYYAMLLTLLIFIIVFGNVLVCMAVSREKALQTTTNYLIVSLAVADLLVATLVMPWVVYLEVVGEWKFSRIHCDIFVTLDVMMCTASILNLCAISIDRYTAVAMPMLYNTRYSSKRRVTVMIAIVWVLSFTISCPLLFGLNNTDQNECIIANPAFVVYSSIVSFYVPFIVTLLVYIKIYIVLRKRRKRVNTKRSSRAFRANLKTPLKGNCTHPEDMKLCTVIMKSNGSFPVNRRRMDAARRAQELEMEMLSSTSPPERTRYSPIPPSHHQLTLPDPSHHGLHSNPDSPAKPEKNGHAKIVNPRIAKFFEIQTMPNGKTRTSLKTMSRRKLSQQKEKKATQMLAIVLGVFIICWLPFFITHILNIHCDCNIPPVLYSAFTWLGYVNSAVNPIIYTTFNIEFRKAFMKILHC
D(2) dopamine receptor (Homo sapiens, UniProt P14416), sequence (P14416 whole entry): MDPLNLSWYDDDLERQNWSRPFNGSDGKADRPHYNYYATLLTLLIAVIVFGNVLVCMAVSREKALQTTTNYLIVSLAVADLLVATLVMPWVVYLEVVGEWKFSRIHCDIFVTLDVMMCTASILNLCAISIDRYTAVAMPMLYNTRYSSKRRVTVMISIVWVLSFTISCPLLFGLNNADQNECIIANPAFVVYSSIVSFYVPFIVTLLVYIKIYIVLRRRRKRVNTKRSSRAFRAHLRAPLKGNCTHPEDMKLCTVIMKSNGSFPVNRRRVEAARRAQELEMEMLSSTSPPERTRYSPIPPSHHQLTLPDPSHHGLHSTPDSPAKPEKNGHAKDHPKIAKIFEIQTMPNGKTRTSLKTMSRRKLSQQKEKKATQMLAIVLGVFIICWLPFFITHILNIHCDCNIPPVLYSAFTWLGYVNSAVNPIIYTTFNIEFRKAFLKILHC

The term Ki denotes the dissociation constant of the complex between target and ligand, obtained from inhibition or displacement. One may read the ED50 as the dose that gives a 50% effect, or the effect in half of the subjects. A word on the IC50: it is the point on the concentration scale where inhibition reaches its midpoint. In the case of `CCCN1[C@@H](C)C[C@@H]2Cc3cccc(OC)c3C[C@@H]21` (racemic), the Control was 63% in the test on Felis catus [1], -44% in the test on Rattus norvegicus [7], 32% with Rattus norvegicus [10] and 25% with Felis catus [11]. The Ki on D(2) dopamine receptor [2] turned out to be 0.464 µM. The median effective dose (ED50) in the test with Mus musculus [3] is over 101 µmol/kg; in the test with Mus musculus [4] it was 4.4 µmol/kg; in the test with Felis catus [8], 1.18 µmol/kg. The same compound displayed a BP in the test listed under Felis catus [5] of 85%. In addition, the Max temperature decrease with Mus musculus [6] came to 7.8; in the test on Mus musculus [12] it was 3.1. For the same compound, the IC50 against D(2) dopamine receptor [9] was over 1 µM.
On to `CCCN1CC[C@@H]2Cc3c(O)cccc3C[C@H]21`, for which the Locomotor activity came to 62 with Mus musculus [13]; 53 with Mus musculus [14]; 739 in the test with Mus musculus [15]; 56 in the test on Mus musculus [17]; 47 in the test with Mus musculus [18]; 43 in the test on Mus musculus [19]. In addition, the Locomotor activity in the test on Mus musculus [20] is listed as 93; in the test with Mus musculus [22], 1014; in the test on Mus musculus [23], 1625; in the test with Mus musculus [26] it was 52; in the test on Mus musculus [27], 48. Moreover, the Ki at D(2) dopamine receptor [2] came out at 0.0005 µM; at D(2) dopamine receptor [28] it was 0.002 µM. Moreover, the values for the ED50 in the test on Mus musculus [3], in the test on Mus musculus [21] and in the test on Rattus norvegicus [24] were 0.04 µmol/kg, 0.03 µmol/kg and 0.0014 µmol/kg, respectively. In addition, the Control in the test listed under Rattus norvegicus [16] is on record as -9.5%; in the test on Rattus norvegicus [25], -45%. Also, the Max temperature decrease was found to be 7.5 in the test with Mus musculus [6] and 10.9 in the test on Mus musculus [12].
In the case of `CCCN1CC[C@@H]2Cc3c(cccc3OC)C[C@H]21` (racemic), the Time is 9 s in the test on Mus musculus [29]; 268 s in the test with Mus musculus [32]; 384 s in the test with Mus musculus [33]; 6 s with Mus musculus [34]; 450 s in the test with Mus musculus [35]; 134 s in the test with Mus musculus [36]. The Ki at D(2) dopamine receptor [2] was 0.1 µM; at D(2) dopamine receptor [28], 0.877 µM. In addition, the Locomotor activity was 561 in the test on Mus musculus [30]; 251 with Mus musculus [15]; 61 in the test with Mus musculus [31]; 148 with Mus musculus [17]; 1168 with Mus musculus [37]; 129 in the test on Mus musculus [38]. Further, the ED50 is over 355 µmol/kg in the test with Mus musculus [3], 0.4 µmol/kg in the test on Mus musculus [21], 0.07 µmol/kg with Rattus norvegicus [40] and 0.66 µmol/kg in the test on Rattus norvegicus [42]. Also, the Max temperature decrease turned out to be 6.7 in the test on Mus musculus [6] and 1.4 in the test with Mus musculus [12]. The Control in the test with Rattus norvegicus [39] is listed as -29%; in the test with Rattus norvegicus [41], -39%.
